# Read-outs that look alike come from different tables or passages of the source. Marks after values point to notes of the source that are not given here.
# How the values were obtained:
# [1] = not measured, data according to Neues Rezeptur-Formularium, cited from earlier work
# [2] = Fungicidal concentrations of abafungin (stated in Example 4); type: cell-based
# [3] = Abafungin solubility in excipients (Example 1); type: physicochemical
# Procedure: To order to study the solubility of abafungin, abafungin was dissolved in a number of excipients.
smiles,measurement,setting,value
Cc1cc(C2CCCCC2)n(O)c(=O)c1 [Ciclopirox Olamine],maximum solubility,[1]; Ethanol gel (NRF 11.84),~soluble*^5
same,maximum solubility,[1]; Pure ethanol,~soluble*^5
same,maximum solubility,[1]; Pure water,~1-3%*^5
Cc1ccc(Oc2ccccc2-c2csc(N=C3NCCCN3)n2)c(C)c1 [abafungin],fungicidal concentrations,[2],16 to 30 µg/mL
same,Not soluble,[3]; excipient: MPEG 550,✓
same,Not soluble,[3]; excipient: MPEG 2000,✓
same,Not soluble,[3]; excipient: PEG 400,✓
same,Not soluble,[3]; excipient: PEG 1500,✓
same,Not soluble,[3]; excipient: PEG 4500,✓
same,Not soluble,[3]; excipient: PEG 6000,✓
same,Not soluble,[3]; excipient: PEG 12000,✓
same,Not soluble,[3]; excipient: PEG 20000,✓
same,Not soluble,[3]; excipient: cetearyl ethylhexanoate (cosmetic oils),✓
same,Not soluble,[3]; excipient: decyl oleate (cosmetic oils),✓
same,Not soluble,[3]; excipient: ethanol,✓
same,Not soluble,[3]; excipient: ethanol 70%,✓
same,Not soluble,[3]; excipient: glycerine,✓
same,Not soluble,[3]; excipient: isopropanol,✓
same,Not soluble,[3]; excipient: isopropyl myristate (cosmetic oils),✓
same,Not soluble,[3]; excipient: isopropyl palmitate (cosmetic oils),✓
same,Not soluble,[3]; excipient: medium chain triglyceride (cosmetic oils),✓
same,Not soluble,[3]; excipient: propylene glycol,✓
same,Soluble,[3]; excipient: transcutol,✓ (3%)
same,Not soluble,[3]; excipient: water,✓
same,solubility,"[3]; mixture of water, polyethylene glycol, polyethylene glycol monomethyl ether and an acid such as formic acid",soluble
